These results are taken from patent US20260274830A1, “DEUTERIUM-SUBSTITUTED PYRIDAZINE BENZOTHIOPHENE COMPOUND AND USE THEREOF” (MEDSHINE DISCOVERY INC., priority 2022, published 2026).

One data set has as its target T1, NLRP3 (Rattus norvegicus, UniProt D4A523).
T1 construct: Newborn SD rats were used to obtain mixed glial cells from the cerebral cortex; endogenous in cells; host or cells: primary microglia from the cerebral cortex of newborn SD rats, LPS-primed, nigericin-stimulated
Put plainly: LPS-stimulated IL-1β release assay in rat primary microglia. The format is cell-based. Conditions: LPS 50 ng/ml 3 h, compound 0.5 h, Nigericin 0.3 μg/mL 1 h, IL-1β ELISA. (An ELISA detects its analyte on a solid surface through an enzyme-linked reagent.)

A short description of data set [1]: Pharmacokinetic evaluation in SD rats in vivo. On the set-up: species or system SD rat. The protocol: (§1) The pharmacokinetic characteristics of the compound in rodents after intravenous injection and oral administration were tested according to the standard protocol. In the experiment, the candidate compound was formulated into clear solutions, and a single intravenous injection and oral administration were given to SD rats. The vehicle for intravenous injection and oral administration was a mixed vehicle composed of 5% dimethyl sulfoxide and 95% solutol with a content of 5%. Four male SD rats were used in this project. Two SD rats were administered via intravenous injections, and plasma samples were collected at 0.083, 0.25, 0.5, 1, 2, 4, 8, and 24 h post-administration. The other two SD rats were administered orally by gavage, and plasma samples were collected at 0.25, 0.5, 1, 2, 4, 8, and 24 h post-administration. Plasma concentrations were quantitatively analyzed by LC-MS/MS analysis method, and pharmacokinetic parameters such as peak concentration (Cmax), clearance (CL), half-life (T1/2), volume of distribution at steady state (Vdss), area under the drug-time curve (AUC0-last), and bioavailability (F) were calculated.
as §1, with “injections at a dose of 2 mg/kg,” for “injections,”, “gavage at a dose of 10 mg/kg,” for “gavage,”

A short description of data set [2]: Pharmacokinetic evaluation in beagle dogs in vivo. On the set-up: species or system beagle dog. The protocol:
as §1, with “beagle dogs” for “rodents”, “after” for “after intravenous injection and”, “beagle dogs.” for “SD rats.”, “beagle dogs” for “SD rats”, “injections at a dose of 1 mg/kg,” for “injections,”, “gavage at a dose of 2 mg/kg,” for “gavage,”

Setting [3] is: IV and PO, oral bioavailability, oral exposure, half-life, clearance.

T1 sequence (D4A523 whole entry): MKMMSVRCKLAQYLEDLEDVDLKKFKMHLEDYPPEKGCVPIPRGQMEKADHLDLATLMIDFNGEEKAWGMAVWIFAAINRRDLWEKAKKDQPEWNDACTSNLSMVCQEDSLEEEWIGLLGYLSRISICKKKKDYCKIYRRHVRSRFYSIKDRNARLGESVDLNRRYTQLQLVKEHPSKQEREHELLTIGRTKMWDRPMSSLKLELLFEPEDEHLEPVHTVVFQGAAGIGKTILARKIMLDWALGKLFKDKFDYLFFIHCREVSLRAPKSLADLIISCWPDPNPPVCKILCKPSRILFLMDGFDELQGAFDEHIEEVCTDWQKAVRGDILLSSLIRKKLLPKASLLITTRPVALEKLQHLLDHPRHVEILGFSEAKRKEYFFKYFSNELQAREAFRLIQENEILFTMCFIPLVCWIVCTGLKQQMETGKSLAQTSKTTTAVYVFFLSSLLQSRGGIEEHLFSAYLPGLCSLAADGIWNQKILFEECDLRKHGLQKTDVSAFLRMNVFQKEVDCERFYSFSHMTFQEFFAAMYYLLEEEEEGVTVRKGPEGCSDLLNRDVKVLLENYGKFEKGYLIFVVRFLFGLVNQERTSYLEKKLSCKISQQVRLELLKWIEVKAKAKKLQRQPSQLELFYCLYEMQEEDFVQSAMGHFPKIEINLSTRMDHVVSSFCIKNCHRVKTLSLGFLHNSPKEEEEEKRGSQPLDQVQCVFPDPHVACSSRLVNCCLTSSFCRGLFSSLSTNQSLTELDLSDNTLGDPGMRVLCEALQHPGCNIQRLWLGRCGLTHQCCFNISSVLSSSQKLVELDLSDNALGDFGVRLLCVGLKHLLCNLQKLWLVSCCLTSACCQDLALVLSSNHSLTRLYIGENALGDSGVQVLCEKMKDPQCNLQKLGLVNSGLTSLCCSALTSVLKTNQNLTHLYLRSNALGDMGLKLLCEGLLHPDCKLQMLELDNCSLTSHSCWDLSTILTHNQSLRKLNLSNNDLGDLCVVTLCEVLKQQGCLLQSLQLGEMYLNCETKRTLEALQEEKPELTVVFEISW
Experimental for NLRP3: This experiment utilized rat primary microglia to study the inhibitory activity of NLRP3 inhibitors on the secretion of IL-1β in rat primary microglia.
Newborn SD rats were used to obtain mixed glial cells from the cerebral cortex through digestion and separation, and the cells were seeded into culture flasks for cultivation. The culture medium was replaced every 3-4 days, and the cells were cultured for approximately 10 days until they reached full confluence. The microglial cells were then collected through shaking at 37° C. and centrifugation, and were seeded into a 96-well cell culture plate for overnight cultivation. The cells were then transferred to serum-free medium and treated with 50 ng/ml LPS for 3 hours. Different concentrations of the compounds were added for 0.5 hours, followed by the addition of 0.3 μg/mL Nigericin for 1 hour. The supernatant was collected and either stored at −80° C. or directly detected for IL-1β release using an ELISA kit, following the manufacturer's instructions. Data processing involved using 10 μM of the positive compound group as the low value (L) and the DMSO group as the high value (H). The inhibition rate of the compound was calculated using the formula: Inhibition %=(Ave_H-Sample)/(Ave_H−Ave_L)*100, and the IC50 of the compound was calculated using the nonlinear regression equation: Y=Bottom+(Top−Bottom)/(1+10∧((LogIC50−X)*HillSlope)).

As usually defined, the IC50 is the concentration at which inhibition is half-maximal. The low end stands for greater potency, the high end for weaker potency. The term clearance denotes a measure of how efficiently the substance is removed, as volume per time. For orientation: bioavailability means the share of a dose that reaches the circulation, judged against a reference dose that is usually intravenous. Regarding `[2H]C([2H])([2H])N1CCC[C@@H](Nc2cc(C)c(-c3ccc4sccc4c3O)nn2)C1` [Compound II], at NLRP3, the IC50 worked out at 35.8 nM. Moreover, the “pharmacokinetic properties in SD rats in vivo (in words)” value in data set [1] (setting [3]) is recorded as “good pharmacokinetic properties”. For the same compound, the AUC(0-t) in data set [1] (male, rat, plasma, IV 2 mg/kg, read-out: Area under drug-time curve AUC0-last IV) stood at 1.87 µM·h; in data set [1] (male, rat, plasma, PO 10 mg/kg, read-out: Area under drug-time curve AUC0-last PO), 2.35 µM·h; in data set [2] (male, dog, plasma, IV 1 mg/kg, read-out: Area under drug-time curve AUC0-last IV), 1.92 µM·h; in data set [2] (male, dog, plasma, PO 2 mg/kg, read-out: Area under drug-time curve AUC0-last PO), 3.11 µM·h. Further, the clearance in data set [1] (male, rat, plasma, IV 2 mg/kg, read-out: Clearance CL) turned out to be 47.4 mL/min/kg; in data set [2] (male, dog, plasma, IV 1 mg/kg, read-out: Clearance CL), 25.7 mL/min/kg. The half-life is 1.82 h in data set [1] (male, rat, plasma, IV 2 mg/kg, read-out: Half-life T1/2 (IV) (converted)) and 3.53 h in data set [2] (male, dog, plasma, IV 1 mg/kg, read-out: Half-life T1/2 (IV) (converted)). Besides, the Vd in data set [1] (male, rat, plasma, IV 2 mg/kg, read-out: Volume of distribution at steady state Vdss) was 6.99 L/kg; in data set [2] (male, dog, plasma, IV 1 mg/kg, read-out: Volume of distribution at steady state Vdss), 6.9 L/kg. Moreover, the bioavailability in data set [1] (male, rat, plasma, PO 10 mg/kg vs IV 2 mg/kg, read-out: Bioavailability F) amounted to 27.1%; in data set [2] (male, dog, plasma, PO 2 mg/kg vs IV 1 mg/kg, read-out: Bioavailability F) it was 80.9%. Also, the Cmax in data set [1] (male, rat, plasma, oral gavage 10 mg/kg (route not given), read-out: Peak concentration Cmax) was 593 nM; in data set [2] (male, dog, plasma, oral gavage 2 mg/kg (route not given), read-out: Peak concentration Cmax), 504 nM. In addition, the “pharmacokinetic properties in beagle dogs in vivo (in words)” value in data set [2] (setting [3]) was “good pharmacokinetic properties”.
